Measurements from US20100022611A1 (THE UNIVERSITY COURT OF THE UNIVERSITY OF ABERDEEN, priority 2007, published 2010).

Columns and labels:
[1] = patients, clinical trials; cited from earlier work
[2] = molecular target: T1, CB1 receptor (Mus musculus, UniProt P47746); test: Electrically-evoked contractions of mouse isolated vas deferens, antagonism of CP55940; design: The isolated vas deferens was then removed from the mouse by cutting through its prostatic end; from tissue; host or cells: isolated vas deferens of male albino MF1 mice
From the text: (§1) The vas deferens (or ductus deferens) is a muscular tube, approximately 3 mm in diameter and 30 cm in length, connecting the left and right epididymis to the ejaculatory ducts in order to move sperm. It is bound by connective tissue with an ample supply of blood vessels, nerves, and lymphatics. This in vitro bioassay exploits the expression of CB1 receptors on the presynaptic nerve terminals of this tubular structure.
(§2) The animals used in the study were male albino MF1 mice bred and were housed six to eight per-cage and were kept in a temperature-controlled room which was maintained on a fixed light-dark cycle. All mice were given free access to food and water. Subjects used in the study were a minimum of four weeks of age. Each mouse was stunned by striking the back of the head and killed by dislocation of the neck (cervical vertebrae). Following the killing, the mouse body weight was determined. A transverse incision, approximately of 1.5 cm, was made in the skin with the aid of dissection scissors. A similar-sized transverse incision was made through the lower abdominal wall. […] This was used to identify the vas deferens, which is attached to the testis via the epididymis. Gripping the epididymis with forceps, the vas deferens was cut free first from the testis and then from the connective tissue. The isolated vas deferens was then removed from the mouse by cutting through its prostatic end. This procedure was repeated on the right testis. It was important that throughout the latter two stages of this dissection, care was taken to ensure the vas deferens was not overstretched. In addition to their vas deferens, these animals were euthanized for use of their brain and small intestine by fellow researchers in different research fields. This minimisation of the number of animals euthanized complied with the European Community guidelines.
(§3) During transit, the two isolated vas deferens from each mice were kept moist in a glass vial filled with warm modified Mg^2+-free Krebs' solution. Before setting the tissue up in an organ bath, further removal of connective tissue, mesentery, and the epididymis was performed; cotton thread was tied securely to both end of the vas deferens.
(§4) The one-tailed thread was attached to the Pioden UF1 isometric transducer (Harvard Apparatus) and the two-tailed thread hung out of the bottom of the bath. The latter served as an anchor point for applying tension. […] Contractile activity was recorded using the isometric transducer and the output monitored by a computer connected to the data recording and analysis system (MacLab or PowerLab). The tissues were then ready for stimulation. […]

[3] = molecular target: T1, CB1 receptor; test: [35S]GTPγS binding, compound alone (Table 2, Function); assay type: biochemical; design: from tissue; settings: compound alone
From the text: (§5) The [^35S] GTPγS binding assay is simply a means of measuring G protein activation following agonist occupation of a GPCR. The significance of replacing endogenous GTP with radiolabeled [^35S] GTPγS is two-fold. […] GTPγS. Secondly, as with any radiolabelling, the aim is to allow quantitative analysis of a selected molecular species, in this case the degree of agonist binding can be gauged by measuring the subsequent levels of radioactivity in the desired tissue.
(§6) A vehicle control was an essential aspect of the experiment. […] The vehicle is made up of 10 μL of DMSO and 990 μL of binding buffer, resulting in the assay containing 0.1% vehicle.
(§7) Buffer; [^35S] […] The GTPγS binding assay was initiated by the addition of the [^35S] GTPγS. The assay was incubated at 37° C. in a water bath for 1 hour. The assay was terminated by addition of ice-cold Tris/BSA buffer and rapid vacuum filtration using a 24-well Brandel (cell harvester) and glass-fibre filters that have been soaked in Tris/BSA buffer at 4° C. for 24 hours. Each well was washed 6 times with 1.2 mL of Tris/BSA buffer. The filters were then oven dried for 1 hour. The sections of filter papers were then separated and placed in individual vials, to which 5 mL of scintillation fluid was added. The filter papers were soaked in the scintillation fluid for 1 hour before the radioactivity in each vial was quantified by liquid scintillation spectrometry.
(§8) The data was fitted to a sigmoidal concentration-response curve using GraphPad Prism 4. Significance was defined by a one-sample t-test (GraphPad Prism 4), which compared mean % stimulation values S.E.M. to the basal binding level, 0.0% stimulation.

[4] = molecular target: CB1 receptor (Homo sapiens, UniProt P21554); test: [35S]GTPγS binding, compound alone, 24 hours FBS-starved CB1 CHO cells; assay type: biochemical; settings: 1 nM to 10 μM
From the text: as §5, §6, §7, §8
The vertical lines indicate S.E.M. (standard error of the mean) (*= P<0.05, **= P<0.01, ***= P<0.001, one-sample t-test) (n=4).

[5] = molecular target: T1, CB1 receptor; test: [35S]GTPγS binding assay in mouse brain membranes, antagonism of CP55940; assay type: biochemical; design: Whole brains from eight adult male mice were dissected and suspended in centrifugation buffer; from tissue; host or cells: mouse whole brain membranes
From the text: as §5, §6, §7, §8

[6] = molecular target: T2, cannabinoid CB1 receptor (Mus musculus, UniProt P47746); test: Mouse brain competition binding assay, [3H]CP55940 displacement; settings: mouse brain membranes, [3H]CP55940 0.7 nM; read-out: Ki (nM) [affinity] Mouse Brain [3H]CP55940 Displacement
T2 construct: Whole brains from eight adult male mice were dissected and suspended in centrifugation buffer; from tissue; host or cells: mouse whole brain membranes
Protocol: The competition binding assay is a […] radioligand binding assay, which determines the affinity of a given compound for a specific receptor site, in this instance, the cannabinoid CB1 receptor. Mouse brain membranes were the chosen tissue due to their high expression of CB1 receptors.
Whole brains from eight adult male mice were dissected and suspended in centrifugation buffer. The brains were then homogenised with a Polytron Homogeniser prior to centrifugation at 1,600 RCF, 4° C. for 10 minutes. Centrifugation produced a supernatant, which was collected, and then the remaining pellet was re-suspended in centrifugation buffer and centrifuged as before. All supernatants were combined, and centrifuged at 28,000 RCF, 4° C. for a further 20 minutes. The supernatant was then discarded and the pellet re-suspended in Buffer A before incubation for 10 minutes at 37° C. The membrane suspension was then centrifuged at RCF 23,000, 4° C. for 20 minutes. The pellet was then re-suspended in Buffer A and incubated for 40 minutes at room temperature. The suspension was then centrifuged for 15 minutes at RCF 11,000, 4° C., and the pellet was then re-suspended in Buffer B. Finally a Protein Assay was carried out to determine the protein content of the mouse membrane preparation. The membrane samples were then made up into 1 mL aliquots of 1 mg/mL protein concentration and stored at −80° C. The samples were removed and defrosted when they were required.
The competition binding assay utilizes standard binding buffer, comprising:
10 μL of 1 mM stock of CP55940 in DMSO was added to 990 μL of binding buffer.
This was essential to obtain a value for specific binding, which is defined as the difference between the binding that occurs in the presence and absence of […] unlabelled CP55940.
as §7, with “[^3H]” for “[^35S]”, “competition” for “GTPγS binding”, “membranes.” for “[^35S] GTPγS.”, “had” for “have”
Data were fitted to a one-site competition curve using GraphPad Prism 4.

[7] = molecular target: T1, CB1 receptor; test: Electrically-evoked contractions of isolated mouse vas deferens, compound alone; design: The isolated vas deferens was then removed from the mouse by cutting through its prostatic end; from tissue; host or cells: isolated vas deferens of male albino MF1 mice; settings: 1 μM, tested alone
From the text: as §1, §2, §3, §4

T1 sequence (P47746 whole entry): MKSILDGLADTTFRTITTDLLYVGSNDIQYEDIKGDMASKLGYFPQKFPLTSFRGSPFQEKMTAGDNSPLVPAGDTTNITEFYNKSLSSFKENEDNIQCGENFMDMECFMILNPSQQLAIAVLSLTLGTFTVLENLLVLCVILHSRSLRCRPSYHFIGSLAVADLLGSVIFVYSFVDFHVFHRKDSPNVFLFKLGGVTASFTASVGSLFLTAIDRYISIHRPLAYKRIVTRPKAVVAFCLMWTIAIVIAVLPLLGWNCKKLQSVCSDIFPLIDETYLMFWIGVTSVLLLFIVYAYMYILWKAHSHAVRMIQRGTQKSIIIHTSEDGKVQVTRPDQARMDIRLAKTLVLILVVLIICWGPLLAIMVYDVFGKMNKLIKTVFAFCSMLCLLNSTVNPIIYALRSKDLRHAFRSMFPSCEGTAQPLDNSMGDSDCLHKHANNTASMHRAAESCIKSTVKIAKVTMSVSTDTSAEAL
Sequence of CB1 receptor (Homo sapiens, UniProt P21554) (P21554 whole entry): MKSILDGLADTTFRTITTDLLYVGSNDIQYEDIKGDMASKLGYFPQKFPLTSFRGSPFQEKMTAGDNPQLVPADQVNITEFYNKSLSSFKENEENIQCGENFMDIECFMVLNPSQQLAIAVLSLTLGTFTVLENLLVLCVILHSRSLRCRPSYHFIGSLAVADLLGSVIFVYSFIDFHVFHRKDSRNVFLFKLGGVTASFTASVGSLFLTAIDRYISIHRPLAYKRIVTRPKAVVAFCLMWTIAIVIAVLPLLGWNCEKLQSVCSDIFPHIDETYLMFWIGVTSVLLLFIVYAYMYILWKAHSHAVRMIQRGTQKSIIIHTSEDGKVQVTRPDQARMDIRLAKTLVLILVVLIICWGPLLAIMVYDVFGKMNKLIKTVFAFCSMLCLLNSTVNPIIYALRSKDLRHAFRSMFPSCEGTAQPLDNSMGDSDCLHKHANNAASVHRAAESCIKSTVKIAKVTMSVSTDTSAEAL
T2 sequence (P47746 whole entry): as the sequence (P47746 whole entry) above

SMILES	Body weight lost each year [1]	First year drop-out rate due to side effects [1]	Shift in the log concentration response curve for CP55940, vas deferens contraction [2]	Function Mouse Brain [35S]GTPγS Alone [3]	Effect on [35S]GTPγS binding, compound alone [4]	Shift in the log concentration response curve for CP55940, [35S]GTPγS [5]	Ki [6] [nM]	Effect on electrically-evoked contractions of isolated mouse vas deferens [7]
Cc1c(C(=O)NN2CCCCC2)nn(-c2ccc(Cl)cc2Cl)c1-c1ccc(Cl)cc1 [SR141716A, N-(piperidin-1-yl)-5-(4-chlorophenyl)-1-(2,4-dichlorophenyl)-4-methyl-1H-pyrazole-3-carboxamide]	5-10%	40-50%	–	–	–	–	–	–
Cc1c(C(=O)Cc2ccccc2)nn(-c2ccc(Cl)cc2Cl)c1-c1ccc(Cl)cc1 [ABD406]	–	–	right-ward shift	Neutral antagonist	no reduction	right-ward shift	24.2	neither inhibited nor significantly enhanced
